Measured values taken from US11679110B2, “Methods of treating disorders using CSF1R inhibitors” (Deciphera Pharmaceuticals, LLC, priority 2018, dated 2023).
Read-outs that look alike come from different tables or passages of the source. Marks after values point to notes of the source that are not given here.

Experiment: Plasma pharmacokinetics of Compound 1 in patients with advanced solid tumor malignancies and TGCT
Assay type: in vivo, human
Details: for Cmax / AUC(0-t) / Tmax: human, plasma, oral; for Tmax: Median (Min, Max)
Experimental: PK analysis was conducted on all 38 patients. Serial blood samples were collected for PK and took place on either Day −7, Cycle 1, Day 1 (C1D1) and C2D1 at pre-dose, 0.5, 1, 2, 4, 6, 8, 10-12, and 24 hr time points or Day −7, C1D1, C1D8, and C2D1 at pre-dose, 1, 2, 4, 6, and 8 hr time points, or C1D1, C1D8, and C2D1 at pre-dose, 1, 2, 4, 6, and 8 hr time points. High fat meal was given prior to dosing of Compound 1 on Day −7. PD effects were measured by two methodologies: 1) depletion of CSF1R-expressing monocytes in peripheral blood (Cohorts 1-7) from C1D1, C1D15 and C2D1; and 2) increase of plasma levels of CSF1 and IL-34, the ligands for CSF1R (Cohorts 1-7) on C1D1, C1D15, and C2D1. For the CD16^+ monocyte assay, whole blood collected in an EDTA vacutainer was aliquoted into tubes and incubated with fluorescently-labeled antibodies (CD14-Alexa488 (BD Pharmingen); CD16-PE-Cy7 (BD Pharmingen); and TIE2-APC (R&D Systems). After incubation, red blood cells were lysed, and the remaining cells were washed several times before being analyzed on a flow cytometer. For the plasma CSF1 assay or IL-34, whole blood collected in an EDTA vacutainer was centrifuged, and the plasma was collected and frozen. Plasma levels of CSF1 or IL-34 were measured using a commercial ELISA kit (R&D Systems).
Cohort 1 had daily dosing.

Structure (SMILES): Cc1nc(-c2cnc(NC(C)C)n(C)c2=O)ccc1Oc1ccnc(-c2cnn(C)c2)c1 [Compound 1, 2-(isopropylamino)-3-methyl-5-(6-methyl-5-((2-(1-methyl-1H-pyrazol-4-yl)pyridin-4-yl)oxy)pyridin-2-yl)pyrimidin-4(3H)-one]
- Ctrough (Cohort 1 10 mg QD, C1D8, Geo Mean): 331 ng/mL
- Ctrough (Cohort 1 10 mg QD, C2D1, Geo Mean): 447^c ng/mL
- Ctrough (Cohort 2 10 mg QD x 5 d, BIW maintenance dose, C1D8, Geo Mean): 184 ng/mL
- Ctrough (Cohort 2 10 mg QD x 5 d, BIW maintenance dose, C2D1, Geo Mean): 122 ng/mL
- AUC0-8 (Cohort 2 10 mg Twice Weekly after 5-day QD loading dose, C2D1, GM (CV %)): 1030 (63) hr*ng/mL
- Ctrough (Cohort 3 20 mg QD x 5 d, QW maintenance dose, C1D8, Geo Mean): 850 ng/mL
- Ctrough (Cohort 3 20 mg QD x 5 d, QW maintenance dose, C2D1, Geo Mean): 205 ng/mL
- AUC0-8 (Cohort 3 20 mg Weekly after 5-day QD loading dose, C2D1, GM (CV %)): 3380 ng·h/mL
- Ctrough (Cohort 4 20 mg QD x 5 d, BIW maintenance dose, C1D8, Geo Mean): 483 ng/mL
- Ctrough (Cohort 4 20 mg QD x 5 d, BIW maintenance dose, C2D1, Geo Mean): 441 ng/mL
- AUC0-8 (Cohort 4 20 mg Twice Weekly after 5-day QD loading dose, C2D1, GM (CV %)): 4300 (2.82) hr*ng/mL
- Ctrough (Cohort 5 30 mg QD x 5 d, BIW maintenance dose, C1D8, Geo Mean): 1020 ng/mL
- Ctrough (Cohort 5 30 mg QD x 5 d, BIW maintenance dose, C2D1, Geo Mean): 574 ng/mL
- AUC0-8 (Cohort 5 30 mg Twice Weekly after 5-day QD loading dose, C2D1, GM (CV %)): 4750 (53.2) hr*ng/mL
- Ctrough (Cohort 6 30 mg QD x 5 d, BIW maintenance dose (so in the source), C2D1, Geo Mean): 570 ng/mL
- AUC0-8 (Cohort 6 40 mg Twice Weekly after 5-day QD loading dose, C2D1, GM (CV %)): 7290 (28.1) hr*ng/mL
- AUC0-8 (Cohort 7 20 mg QD after 3-day 50 mg QD loading dose, C2D1, GM (CV %)): 5580 (86.8) hr*ng/mL
- Ctrough (Cohort 7 50 mg QD x 3 d, QD maintenance dose, C2D1, Geo Mean): 1040 ng/mL
- Cmax (10 mg, Cohort 1 10 mg QD, C1D1, GM (CV %)): 155 ng/mL
- AUC(0-t) (10 mg, Cohort 1 10 mg QD, C1D1, GM (CV %), read-out: AUC0-8): 770 ng·h/mL
- Cmax (10 mg, Cohort 1 10 mg QD, C1D1, Geo Mean): 155 ng/mL
- AUC(0-t) (10 mg, Cohort 1 10 mg QD, C1D1, Geo Mean, read-out: AUC0-8 h): 770 ng·h/mL
- Tmax (10 mg, Cohort 1 10 mg QD, C1D1): 1 h
- Cmax (10 mg, Cohort 1 10 mg QD, C2D1, GM (CV %)): 767 ng/mL
- AUC(0-t) (10 mg, Cohort 1 10 mg QD, C2D1, GM (CV %), read-out: AUC0-8): 4510 ng·h/mL
- Cmax (10 mg, Cohort 1 10 mg QD, C2D1, Geo Mean): 767 ng/mL
- AUC(0-t) (10 mg, Cohort 1 10 mg QD, C2D1, Geo Mean, read-out: AUC0-8 h): 4470 ng·h/mL
- Tmax (10 mg, Cohort 1 10 mg QD, C2D1): 0.5 h
- Cmax (10 mg, Cohort 1 10 mg QD, Day -7, Geo Mean): 75.9 ng/mL
- AUC(0-t) (10 mg, Cohort 1 10 mg QD, Day -7, Geo Mean, read-out: AUC0-8 h): 429 ng·h/mL
- Cmax (10 mg, Cohort 1 10 mg QD, Day-7, GM (CV %)): 75.9 ng/mL
- AUC(0-t) (10 mg, Cohort 1 10 mg QD, Day-7, GM (CV %), read-out: AUC0-8): 425 ng·h/mL
- Cmax (10 mg, Cohort 2 10 mg QD x 5 d, BIW maintenance dose, C1D1, Geo Mean): 168 ng/mL
- AUC(0-t) (10 mg, Cohort 2 10 mg QD x 5 d, BIW maintenance dose, C1D1, Geo Mean, read-out: AUC0-8 h): 1080 ng·h/mL
- Cmax (10 mg, Cohort 2 10 mg QD x 5 d, BIW maintenance dose, C1D8, Geo Mean): 248 ng/mL
- AUC(0-t) (10 mg, Cohort 2 10 mg QD x 5 d, BIW maintenance dose, C1D8, Geo Mean, read-out: AUC0-8 h): 1730 ng·h/mL
- Cmax (10 mg, Cohort 2 10 mg QD x 5 d, BIW maintenance dose, C2D1, Geo Mean): 149 ng/mL
- AUC(0-t) (10 mg, Cohort 2 10 mg QD x 5 d, BIW maintenance dose, C2D1, Geo Mean, read-out: AUC0-8 h): 1030 ng·h/mL
- Cmax (10 mg, Cohort 2 10 mg QD x 5 d, BIW maintenance dose, Day -7, Geo Mean): 119 ng/mL
- AUC(0-t) (10 mg, Cohort 2 10 mg QD x 5 d, BIW maintenance dose, Day -7, Geo Mean, read-out: AUC0-8 h): 781 ng·h/mL
- Cmax (10 mg, Cohort 2 10 mg Twice Weekly after 5-day QD loading dose, C1D1, GM (CV %)): 94 ng/mL
- AUC(0-t) (10 mg, Cohort 2 10 mg Twice Weekly after 5-day QD loading dose, C1D1, GM (CV %), read-out: AUC0-8): 467 ng·h/mL
- Cmax (10 mg, Cohort 2 10 mg Twice Weekly after 5-day QD loading dose, C1D8, GM (CV %)): 248 ng/mL
- AUC(0-t) (10 mg, Cohort 2 10 mg Twice Weekly after 5-day QD loading dose, C1D8, GM (CV %), read-out: AUC0-8): 1730 ng·h/mL
- Tmax (10 mg, Cohort 2 10 mg Twice Weekly after 5-day QD loading dose, C1D8): 1 h
- Cmax (10 mg, Cohort 2 10 mg Twice Weekly after 5-day QD loading dose, C2D1, GM (CV %)): 149 ng/mL
- AUC(0-t) (10 mg, Cohort 2 10 mg Twice Weekly after 5-day QD loading dose, C2D1, GM (CV %), read-out: AUC0-8): 1030 ng·h/mL
- Tmax (10 mg, Cohort 2 10 mg Twice Weekly after 5-day QD loading dose, C2D1): 1 h
- Cmax (10 mg, Cohort 2 10 mg Twice Weekly after 5-day QD loading dose, Day-7, GM (CV %)): 80.2 ng/mL
- AUC(0-t) (10 mg, Cohort 2 10 mg Twice Weekly after 5-day QD loading dose, Day-7, GM (CV %), read-out: AUC0-8): 353 ng·h/mL
- Cmax (20 mg, Cohort 3 20 mg QD x 5 d, QW maintenance dose, C1D1, Geo Mean): 466 ng/mL
- AUC(0-t) (20 mg, Cohort 3 20 mg QD x 5 d, QW maintenance dose, C1D1, Geo Mean, read-out: AUC0-8 h): 2510 ng·h/mL
- Cmax (20 mg, Cohort 3 20 mg QD x 5 d, QW maintenance dose, C1D8, Geo Mean): 1160 ng/mL
- AUC(0-t) (20 mg, Cohort 3 20 mg QD x 5 d, QW maintenance dose, C1D8, Geo Mean, read-out: AUC0-8 h): 7410 ng·h/mL
- Cmax (20 mg, Cohort 3 20 mg QD x 5 d, QW maintenance dose, C2D1, Geo Mean): 530 ng/mL
- AUC(0-t) (20 mg, Cohort 3 20 mg QD x 5 d, QW maintenance dose, C2D1, Geo Mean, read-out: AUC0-8 h): 3380 ng·h/mL
- Cmax (20 mg, Cohort 3 20 mg QD x 5 d, QW maintenance dose, Day -7, Geo Mean): 242 ng/mL
- AUC(0-t) (20 mg, Cohort 3 20 mg QD x 5 d, QW maintenance dose, Day -7, Geo Mean, read-out: AUC0-8 h): 1320 ng·h/mL
- Cmax (20 mg, Cohort 3 20 mg Weekly after 5-day QD loading dose, C1D1, GM (CV %)): 466 ng/mL
- AUC(0-t) (20 mg, Cohort 3 20 mg Weekly after 5-day QD loading dose, C1D1, GM (CV %), read-out: AUC0-8): 2510 ng·h/mL
- Tmax (20 mg, Cohort 3 20 mg Weekly after 5-day QD loading dose, C1D1): 1 h
- Cmax (20 mg, Cohort 3 20 mg Weekly after 5-day QD loading dose, C1D8, GM (CV %)): 1160 ng/mL
- AUC(0-t) (20 mg, Cohort 3 20 mg Weekly after 5-day QD loading dose, C1D8, GM (CV %), read-out: AUC0-8): 7290 ng·h/mL
- Tmax (20 mg, Cohort 3 20 mg Weekly after 5-day QD loading dose, C1D8): 1 h
- Cmax (20 mg, Cohort 3 20 mg Weekly after 5-day QD loading dose, C2D1, GM (CV %)): 530 ng/mL
- AUC(0-t) (20 mg, Cohort 3 20 mg Weekly after 5-day QD loading dose, C2D1, GM (CV %), read-out: AUC0-8): 3380 ng·h/mL
- Tmax (20 mg, Cohort 3 20 mg Weekly after 5-day QD loading dose, C2D1): 1 h
